The nature of data set [1]: BBB permeability assay in U87MG-SLC intracranial xenograft mice. Type of data set: in vivo, mouse. Particulars: nude, mouse, in vivo, iv, 10 mg/kg. The procedure: Fig. 2 The BBB permeability and tumor suppressor ability of GA-amide compared with TMZ. GA-amide (a) or TMZ (b) concentration in the tumor area and normal brain tissue following a single injection of GA-amide (10 mg/kg, i.v.) or TMZ (10 mg/kg, i.v.). The data are presented as the means ± SEMs (n = 3). c Western blot analysis of the expression of TrkA in mouse tumor tissues (T) and normal brain tissues (N), n = 4. d Western blot analysis of glycosylated TrkA expression in human normal brain tissues (N) and glioma tissues of different grades. e Time curve of GA-amide and TMZ treatment in a cell viability assay (MTS) in T2-4, GSC2 and T12-1 cells. f–h A PDX mouse model was established, and the mice were treated with vehicle (control, n = 9), 2 mg/kg GA-amide (n = 9), 2 mg/kg GAC (n = 9) or […] TMZ (n = 8) by i.p. injection daily for 10 days. A summary photograph is presented in (f), statistical results in (g) and the body weights of mice in (h); the mean ± SEMs are shown. n.s: P ≥ 0.05, *P < 0.05, **P < 0.01 and ***P < 0.001 compared with the control group by one-way ANOVA at each time point
Mice bearing U87MG-SLC cell intracranial xenografts were injected with GA-amide (i.v.), and tissues from the brain tumor area and normal brain tissues were collected at different times after injection. […] The diagnostic product ions for GA-amide were detected at m/z 628.3/572.2.

Data set [2] deals with PDCs (T2-4, T12-1, T12-2) and GSC2 cells. The data set can be described thus: Limiting dilution assay (self-renewal). The data set is classed as cell-based. To be noted: pretreatment for 4 h. As to the method:
For the tumor sphere formation assay, cells were inoculated in 96-well plates at 600 cells/well in a volume of 100 μL. The tumor spheres with a diameter of 50–100 μm and a diameter of over 100 μm were counted separately under a microscope after 14 days. For the limiting dilution assay, cells were dissociated to generate a single-cell suspension, which was diluted along a gradient for seeding in a 96-well plate at concentrations ranging from 400 cells to 25 cells in a volume of 100 μL per well.

Data set [3] concerns GSC2 intracranial xenograft. Kind of data set: GSC2-derived intracranial xenograft model. To be noted: 1 mg/kg i.v. daily for 13 days. The data set is classed as in vivo, nude mice. As to the method: Fig. 3 The inhibitory effects of GA-amide in glioma stem cell-derived mouse models and transgenic mouse models. a, b GSC2 cells were implanted s.c. into nude mice. Mice were treated with control (DMSO) (n = 7) or GA-amide (2 mg/kg) (n = 8) via i.p. injection once daily for 11 days, after which a photograph (a) was taken to show the tumor volume, and the tumor volume was calculated by a modified ellipsoid formula in (b). c, d GSC2 cells were implanted intracranially into nude mice. Mice were injected i.v. with control (n = 8) or 1 mg/kg GA-amide (n = 8) daily for 13 days, the Mantel‒Cox log–rank test was used for analysis, and the relative survival curves are shown in (c). The body weights are shown in (d). e In vivo efficacy studies of GA-amide using transgenic mouse models. Glioma was induced in transgenic C57BL/6 mice by injection of pTomo-Ras-sip53 lentivirus, and the strategy is shown. f, g MRI analysis was used to group mice into the control (n = 7) and GA-amide-treated groups (n = 8) before treatment. […]
For the intracranial xenograft mouse models, 1 × 10^5 GSC2 or U87MG-SLC cells were injected into the frontal cortex (1 mm rostral to the bregma, 2 mm lateral to the midline, and 3 mm deep) using a microsyringe (Hamilton). […] The tumor size was measured by MRI, and survival analysis was performed in a blinded manner.

In the next data set the target is T1, TrkA (Homo sapiens, UniProt P04629).
T1 construct: endogenous in cells; host or cells: GSC2 and U87MG-SLC glioma stem cells
T1 sequence (P04629 33-796): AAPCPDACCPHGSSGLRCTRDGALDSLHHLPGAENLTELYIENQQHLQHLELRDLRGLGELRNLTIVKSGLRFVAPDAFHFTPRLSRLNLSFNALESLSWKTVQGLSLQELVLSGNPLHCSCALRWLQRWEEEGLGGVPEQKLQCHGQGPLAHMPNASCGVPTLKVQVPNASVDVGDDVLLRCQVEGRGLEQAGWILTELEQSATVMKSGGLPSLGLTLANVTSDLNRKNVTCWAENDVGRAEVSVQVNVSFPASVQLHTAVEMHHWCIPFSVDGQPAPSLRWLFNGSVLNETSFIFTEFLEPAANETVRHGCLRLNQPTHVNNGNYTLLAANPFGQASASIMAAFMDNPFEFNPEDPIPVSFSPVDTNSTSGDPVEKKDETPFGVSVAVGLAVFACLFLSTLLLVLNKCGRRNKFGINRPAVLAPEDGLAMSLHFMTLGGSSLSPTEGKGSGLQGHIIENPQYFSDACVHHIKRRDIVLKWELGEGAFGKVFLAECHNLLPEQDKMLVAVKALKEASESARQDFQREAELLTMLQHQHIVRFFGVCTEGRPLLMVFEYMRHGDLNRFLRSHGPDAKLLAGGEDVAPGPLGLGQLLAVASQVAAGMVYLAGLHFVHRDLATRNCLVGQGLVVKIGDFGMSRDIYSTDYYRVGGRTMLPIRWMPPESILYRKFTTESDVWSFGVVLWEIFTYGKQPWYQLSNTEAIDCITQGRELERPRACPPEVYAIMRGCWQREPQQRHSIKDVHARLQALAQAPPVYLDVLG
The data set can be described thus: Western blot of TrkA phosphorylation in GSCs. Type of data set: cell-based. To be noted: GSC2 and U87MG-SLC cells, 4 hours. The procedure:
Proteins in the samples were separated on SDS–polyacrylamide gels and transferred to nitrocellulose membranes (Amersham, Sweden). After blocking with 5% skim milk, the membranes were incubated with the indicated primary antibodies listed in Supplementary Table 3 overnight. After washing with 1 × TBST three times, the membranes were incubated with secondary antibodies, and protein bands were detected by using ECL reagent.
Supplementary Fig. 5 TrkA was not the functional target for GA-amide to inhibit glioma. a Western blot analyses of the TrkA and p-TrkA expression in GSC2 and U87MG-SLC cells with GA-amide treatment for 4 hours. b Western blot analyses of the p-TrkA expression in GSC2 with GA-amide treatment for different times. c, d The combination effects of GA-amide with GW441756, a TrkA inhibitor, or with K252a, an inhibitor of Trk family in GSC2 (c) and U87MG-SLC (d) (48 hours, n = 3).
For orientation: A western blot detects proteins with antibodies after separation by electrophoresis.

The subject of a further data set is infarct. To be noted: subcutaneous injection of 2 mg/kg; cited from earlier work.
The subject of another data set is hippocampal neurons. To be noted: cited from earlier work.

Broadly, the Tmax is the time at which the peak concentration occurs. Turning to `CC(C)=CCC[C@]1(C)C=Cc2c(O)c3c(c(CC=C(C)C)c2O1)O[C@]12C(=C[C@@H]4CC1C(C)(C)O[C@@]2(C/C=C(/C)C(N)=O)C4=O)C3=O` [GA-amide, gambogic amide], in data set [1], the Tmax is 2 min. Also, the “self-renewal (limiting dilution)” value in data set [2] is reported as “suppressed”. Also, in data set [3], the “mouse body weight versus control” value is “no significant difference in mouse body weight” and the survival entry is reported as “prolonged survival times”. The TrkA phosphorylation entry at TrkA is “TrkA was phosphorylated at Y751 and Y490 in GSCs”. In addition, the infarct volume entry in the data set with infarct is listed as “significantly reduce the infarct volume”. Besides, the toxicity in vitro entry in the data set on hippocampal neurons (0.5 μM) is “did not display any toxicity in vitro”. In addition, the “concentrations with protective effect on hippocampal neurons against glutamate-triggered apoptosis” value in the data set with hippocampal neurons (also induced neurite outgrowth in PC12 cells) was 10 to 50 nM.

The values are drawn from article PMC10630452, “The tumor-enriched small molecule gambogic amide suppresses glioma by targeting WDR1-dependent cytoskeleton remodeling” (Signal Transduction and Targeted Therapy, 2023).
